Results on seven compounds are retold here after PubChem BioAssay (NCI).

Some test systems named below: A549 NSCLC; CCRF-CEM leukemia; COLO 205 colon; DU-145 prostate; HCT-15 colon; IGROV1 ovarian; NCI-H522 lung; NCI/ADR-RES ovarian; SK-MEL-5 melanoma; SR leukemia.
Experiment in all cases: NCI anticancer screen, dose series, 48 h

“And” between values parts separate entries of the source, which are not always exact repeats. Equal entries are not always repeated.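 Step 1: Grow cells in 96-well plates. Step 2: Expose to compound for 48 hours at 5 concentrations. Step 3: Interpolate endpoints linearly; if unreached, use highest concentration. GI50 = concentration required for 50% inhibition of growth. Definition used: TGI = concentration required for complete inhibition of growth.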 Where only a bound is given, the exact number is not on record here.

Turning to `COC(=O)c1ccc(=O)c2nc3/c(=C/O)c(O)cc(=O)c3[nH]c12`, the GI50 in the test on A549 NSCLC is 0.514 µM; in the test on CCRF-CEM leukemia it was 0.397 µM; in the test on COLO 205 colon it was 6.49 µM; in the test on HCT-15 colon it was 0.42 µM; in the test with IGROV1 ovarian, 0.469 µM; in the test with NCI-H522 lung it was 0.389 µM. The GI50 was 0.379 µM in the test with NCI/ADR-RES ovarian, 1.56 µM with SK-MEL-5 melanoma and 0.361 µM with SR leukemia. Moreover, the TGI in the test with A549 NSCLC is 14.3 µM and 45 µM; with CCRF-CEM leukemia, > 100 µM and 17.2 µM; in the test on COLO 205 colon it was more than 100 µM; in the test on DU-145 prostate it was 16.5 µM and 17.6 µM; with HCT-15 colon, 21.4 µM and 14.5 µM; with IGROV1 ovarian, 3.31 µM and 17.5 µM. Besides, the TGI in the test on NCI-H522 lung was 31 µM and 18.2 µM; with NCI/ADR-RES ovarian, > 33.6 µM and 13.8 µM; with SK-MEL-5 melanoma, 9.1 µM and 13.5 µM; in the test on SR leukemia, more than 64.9 µM.
Consider `Nc1ccc(C#Cc2cncnc2Nc2ccc(OCc3cccc(F)c3)c(Cl)c2)cc1`, for which the GI50 is 8.58 µM in the test with A549 NSCLC; 5.72 µM in the test with CCRF-CEM leukemia; more than 25 µM in the test on COLO 205 colon; more than 18 µM in the test on DU-145 prostate; 7.32 µM in the test with HCT-15 colon; 4.93 µM in the test with IGROV1 ovarian. Further, the GI50 in the test on NCI-H522 lung was 4.94 µM; in the test on NCI/ADR-RES ovarian, 12.7 µM; in the test on SK-MEL-5 melanoma, more than 15.8 µM; in the test with SR leukemia it was more than 18 µM. The TGI in the test on A549 NSCLC, in the test with CCRF-CEM leukemia, in the test on COLO 205 colon, with DU-145 prostate, in the test with HCT-15 colon and with IGROV1 ovarian was more than 25 µM throughout. Moreover, the TGI was more than 23.2 µM in the test on NCI-H522 lung, more than 25 µM in the test with NCI/ADR-RES ovarian, more than 25 µM with SK-MEL-5 melanoma and more than 25 µM in the test with SR leukemia.
On to `COc1ccc2cc(C(=O)/C=C/c3cccc(Cl)c3Cl)ccc2c1`, for which the GI50 in the test with A549 NSCLC was 10.9 µM; with CCRF-CEM leukemia, 52.6 µM; in the test on COLO 205 colon, 24.7 µM; in the test on DU-145 prostate it was 9.57 µM; with HCT-15 colon, 2.13 µM; in the test with IGROV1 ovarian, 16.6 µM. In addition, the GI50 with NCI-H522 lung is 0.614 µM; in the test with NCI/ADR-RES ovarian, 12.7 µM; in the test on SR leukemia it was 0.806 µM. Further, the TGI was more than 100 µM in the test with A549 NSCLC; more than 100 µM in the test with CCRF-CEM leukemia; more than 71.6 µM in the test with COLO 205 colon; more than 55.9 µM with DU-145 prostate; more than 34.2 µM in the test on HCT-15 colon; more than 100 µM in the test with IGROV1 ovarian. Further, the TGI in the test on NCI-H522 lung was more than 24.6 µM; with NCI/ADR-RES ovarian, more than 100 µM; in the test with SK-MEL-5 melanoma, 4.3 µM; in the test on SR leukemia, more than 100 µM.
In the case of `NC(=O)c1[nH]nc(C2OC(CO)C(O)C2O)c1O` (configuration not stated), the TGI was 289 µM in the test with A549 NSCLC; 2360 µM in the test with CCRF-CEM leukemia; 1660 µM with COLO 205 colon; more than 5000 µM in the test on DU-145 prostate; 838 µM in the test with HCT-15 colon; 1280 µM in the test on IGROV1 ovarian. Also, the TGI was 1050 µM in the test on NCI-H522 lung, 105 µM with NCI/ADR-RES ovarian, 4090 µM in the test with SK-MEL-5 melanoma and more than 232 µM in the test on SR leukemia.
As to `COC(=O)[C@]12CC[C@@H](C)[C@H](C)[C@@H]1C1=CC[C@@H]3[C@@]4(C)C(C=O)=C[C@@](C)(COC(C)=O)[C@@H]4[C@H](O)C[C@@]3(C)[C@]1(C)CC2`, the GI50 in the test on A549 NSCLC was 3.29 µM; in the test on CCRF-CEM leukemia, 1.98 µM; in the test on COLO 205 colon it was 2.14 µM; in the test with DU-145 prostate it was 1.91 µM; in the test with HCT-15 colon it was 1.54 µM; in the test with IGROV1 ovarian, 2.95 µM. Also, the GI50 in the test with NCI-H522 lung was 3.46 µM; in the test on NCI/ADR-RES ovarian, 2.79 µM; with SK-MEL-5 melanoma, 1.66 µM; with SR leukemia, 1.84 µM. The TGI with A549 NSCLC is 12.3 µM; with CCRF-CEM leukemia, 7.01 µM; in the test with COLO 205 colon, 4.96 µM; in the test on DU-145 prostate, 3.93 µM; in the test with HCT-15 colon, 3.06 µM; with IGROV1 ovarian, 9.7 µM. In addition, the TGI in the test with NCI-H522 lung was found to be 8.83 µM; in the test on NCI/ADR-RES ovarian, 9.73 µM; with SK-MEL-5 melanoma, 3.19 µM; in the test on SR leukemia, 5.4 µM.
Consider `CC(CN)[C@@H]1CC[C@]2(CO)CC[C@]3(C)[C@H](CC[C@@H]4[C@@]5(C)CCC(NCCO)C(C)(C)[C@@H]5CC[C@]43C)[C@@H]12` (some centres not stated), for which the GI50 in the test on A549 NSCLC is 1.68 µM; in the test on CCRF-CEM leukemia it was 1.99 µM; with COLO 205 colon it was 1.73 µM; in the test with DU-145 prostate, 2.34 µM; with HCT-15 colon, 1.98 µM; in the test on IGROV1 ovarian, 4.79 µM. Besides, the GI50 was 1.67 µM in the test with NCI-H522 lung, 6.83 µM in the test on NCI/ADR-RES ovarian, 1.76 µM in the test with SK-MEL-5 melanoma and 1.94 µM in the test with SR leukemia. Moreover, the TGI is 3.08 µM in the test on A549 NSCLC; 5 µM with CCRF-CEM leukemia; 3.55 µM with COLO 205 colon; 5.32 µM with DU-145 prostate; 3.97 µM with HCT-15 colon; 19.2 µM in the test with IGROV1 ovarian. The TGI was determined as 3.27 µM in the test on NCI-H522 lung, 22.2 µM with NCI/ADR-RES ovarian, 3.19 µM in the test with SK-MEL-5 melanoma and 4.95 µM with SR leukemia.
For the compound `CC(C)(C)OC(=O)NCCCCCCCCn1c2c(c3ccccc3c1=O)C(=O)c1ccccc1-2`, the GI50 in the test on A549 NSCLC is more than 50 µM; in the test with COLO 205 colon, more than 50 µM; in the test on DU-145 prostate, more than 50 µM; with HCT-15 colon it was more than 50 µM; in the test on IGROV1 ovarian it was 14.3 µM; in the test on NCI-H522 lung, 13.5 µM. Also, the figures for the GI50 in the test with NCI/ADR-RES ovarian, in the test on SK-MEL-5 melanoma and in the test with SR leukemia were more than 42.1 µM, more than 40 µM and more than 34.8 µM, respectively. For the same compound, the TGI was more than 50 µM with A549 NSCLC; more than 11.4 µM in the test with CCRF-CEM leukemia; more than 50 µM in the test on COLO 205 colon; more than 50 µM with DU-145 prostate; more than 50 µM in the test with HCT-15 colon; more than 50 µM with IGROV1 ovarian. Moreover, the TGI is more than 43.6 µM with NCI-H522 lung, more than 50 µM in the test with NCI/ADR-RES ovarian, more than 50 µM in the test on SK-MEL-5 melanoma and more than 50 µM with SR leukemia.
